Test results: ChEMBL document CHEMBL5724914, “Linking interpersonal differences in gut microbiota composition and drug biotransformation activity” (2024)

assay: (§1) The drug is tested on Z-029 corresponding to rat gut metagenome with ENA study accession number: PRJEB37062 and ENA sample accession number: ERS12561828 for biotransformation under anaerobic condition. The drug concentrations were measured over 9 timepoints collected between 0 and 24 hours of incubation by liquid-chromatography-coupled mass spectrometry (LC–MS); conditions: 2 µM
Note: call rule not given here.

| Bacterial Biotransformation | SMILES |
| --- | --- |
| Compound NOT metabolized | CCCC1O[C@@H]2C[C@H]3[C@@H]4CCC5=CC(=O)C=C[C@]5(C)[C@H]4[C@@H](O)C[C@]3(C)[C@]2(C(=O)CO)O1 (some centres undefined) [BUDESONIDE] |
| Compound NOT metabolized | CCCCCCOC(=O)/N=C(/N)c1ccc(NCc2nc3cc(C(=O)N(CCC(=O)OCC)c4ccccn4)ccc3n2C)cc1.CS(=O)(=O)O [DABIGATRAN ETEXILATE MESYLATE] |

assay: as §1, with “on WLS-240” for “on Z-029”, “to human” for “to rat”, “number: ERS12561773” for “number: ERS12561828”; conditions: 2 µM

| Bacterial Biotransformation | SMILES |
| --- | --- |
| Compound metabolized | CCCC1O[C@@H]2C[C@H]3[C@@H]4CCC5=CC(=O)C=C[C@]5(C)[C@H]4[C@@H](O)C[C@]3(C)[C@]2(C(=O)CO)O1 (some centres undefined) [BUDESONIDE] |

assay: as §1, with “Z-012” for “Z-029”, “to” for “to rat gut”, “ERS12561812” for “ERS12561828”; conditions: 2 µM

| Bacterial Biotransformation | SMILES |
| --- | --- |
| Compound metabolized | CCCC1O[C@@H]2C[C@H]3[C@@H]4CCC5=CC(=O)C=C[C@]5(C)[C@H]4[C@@H](O)C[C@]3(C)[C@]2(C(=O)CO)O1 (some centres undefined) [BUDESONIDE] |
| Compound NOT metabolized | CCCCCCOC(=O)/N=C(/N)c1ccc(NCc2nc3cc(C(=O)N(CCC(=O)OCC)c4ccccn4)ccc3n2C)cc1.CS(=O)(=O)O [DABIGATRAN ETEXILATE MESYLATE] |

assay: as §1, with “on Z-003” for “on Z-029”, “to pig” for “to rat”, “number: ERS12561803” for “number: ERS12561828”; conditions: 2 µM

| Bacterial Biotransformation | SMILES |
| --- | --- |
| Compound metabolized | CCCC1O[C@@H]2C[C@H]3[C@@H]4CCC5=CC(=O)C=C[C@]5(C)[C@H]4[C@@H](O)C[C@]3(C)[C@]2(C(=O)CO)O1 (some centres undefined) [BUDESONIDE] |
| Compound NOT metabolized | CCCCCCOC(=O)/N=C(/N)c1ccc(NCc2nc3cc(C(=O)N(CCC(=O)OCC)c4ccccn4)ccc3n2C)cc1.CS(=O)(=O)O [DABIGATRAN ETEXILATE MESYLATE] |

assay: as §1, with “Z-005” for “Z-029”, “to” for “to rat gut”, “ERS12561805” for “ERS12561828”; conditions: 2 µM

| Bacterial Biotransformation | SMILES |
| --- | --- |
| Compound metabolized | CCCC1O[C@@H]2C[C@H]3[C@@H]4CCC5=CC(=O)C=C[C@]5(C)[C@H]4[C@@H](O)C[C@]3(C)[C@]2(C(=O)CO)O1 (some centres undefined) [BUDESONIDE] |
| Compound NOT metabolized | CCCCCCOC(=O)/N=C(/N)c1ccc(NCc2nc3cc(C(=O)N(CCC(=O)OCC)c4ccccn4)ccc3n2C)cc1.CS(=O)(=O)O [DABIGATRAN ETEXILATE MESYLATE] |

conditions: human gut metagenome, 24 h, 2 µM

| Bacterial Biotransformation | SMILES |
| --- | --- |
| Compound metabolized | CCCC1O[C@@H]2C[C@H]3[C@@H]4CCC5=CC(=O)C=C[C@]5(C)[C@H]4[C@@H](O)C[C@]3(C)[C@]2(C(=O)CO)O1 (some centres undefined) [BUDESONIDE] |

assay: as §1, with “on WLS-350” for “on Z-029”, “to human” for “to rat”, “number: ERS12561789” for “number: ERS12561828”; conditions: 2 µM

| Bacterial Biotransformation | SMILES |
| --- | --- |
| Compound metabolized | CCCC1O[C@@H]2C[C@H]3[C@@H]4CCC5=CC(=O)C=C[C@]5(C)[C@H]4[C@@H](O)C[C@]3(C)[C@]2(C(=O)CO)O1 (some centres undefined) [BUDESONIDE] |
| Compound NOT metabolized | CCCCCCOC(=O)/N=C(/N)c1ccc(NCc2nc3cc(C(=O)N(CCC(=O)OCC)c4ccccn4)ccc3n2C)cc1.CS(=O)(=O)O [DABIGATRAN ETEXILATE MESYLATE] |

conditions: human gut metagenome, 24 h, 2 µM; remark: another data set of the same source

| Bacterial Biotransformation | SMILES |
| --- | --- |
| Compound NOT metabolized | CCCC1O[C@@H]2C[C@H]3[C@@H]4CCC5=CC(=O)C=C[C@]5(C)[C@H]4[C@@H](O)C[C@]3(C)[C@]2(C(=O)CO)O1 (some centres undefined) [BUDESONIDE] |

assay: as §1, with “Z-007” for “Z-029”, “ERS12561807” for “ERS12561828”; conditions: 2 µM

| Bacterial Biotransformation | SMILES |
| --- | --- |
| Compound NOT metabolized | CCCC1O[C@@H]2C[C@H]3[C@@H]4CCC5=CC(=O)C=C[C@]5(C)[C@H]4[C@@H](O)C[C@]3(C)[C@]2(C(=O)CO)O1 (some centres undefined) [BUDESONIDE] |
| Compound NOT metabolized | CCCCCCOC(=O)/N=C(/N)c1ccc(NCc2nc3cc(C(=O)N(CCC(=O)OCC)c4ccccn4)ccc3n2C)cc1.CS(=O)(=O)O [DABIGATRAN ETEXILATE MESYLATE] |

conditions: human gut metagenome, 24 h, 2 µM; remark: another data set of the same source

| Bacterial Biotransformation | SMILES |
| --- | --- |
| Compound metabolized | CCCC1O[C@@H]2C[C@H]3[C@@H]4CCC5=CC(=O)C=C[C@]5(C)[C@H]4[C@@H](O)C[C@]3(C)[C@]2(C(=O)CO)O1 (some centres undefined) [BUDESONIDE] |

conditions: human gut metagenome, 24 h, 2 µM; remark: another data set of the same source

| Bacterial Biotransformation | SMILES |
| --- | --- |
| Compound metabolized | CCCC1O[C@@H]2C[C@H]3[C@@H]4CCC5=CC(=O)C=C[C@]5(C)[C@H]4[C@@H](O)C[C@]3(C)[C@]2(C(=O)CO)O1 (some centres undefined) [BUDESONIDE] |

conditions: human gut metagenome, 24 h, 2 µM; remark: another data set of the same source

| Bacterial Biotransformation | SMILES |
| --- | --- |
| Compound metabolized | CCCC1O[C@@H]2C[C@H]3[C@@H]4CCC5=CC(=O)C=C[C@]5(C)[C@H]4[C@@H](O)C[C@]3(C)[C@]2(C(=O)CO)O1 (some centres undefined) [BUDESONIDE] |

conditions: human gut metagenome, 24 h, 2 µM; remark: another data set of the same source

| Bacterial Biotransformation | SMILES |
| --- | --- |
| Compound metabolized | CCCC1O[C@@H]2C[C@H]3[C@@H]4CCC5=CC(=O)C=C[C@]5(C)[C@H]4[C@@H](O)C[C@]3(C)[C@]2(C(=O)CO)O1 (some centres undefined) [BUDESONIDE] |
| Compound NOT metabolized | CCCCCCOC(=O)/N=C(/N)c1ccc(NCc2nc3cc(C(=O)N(CCC(=O)OCC)c4ccccn4)ccc3n2C)cc1.CS(=O)(=O)O [DABIGATRAN ETEXILATE MESYLATE] |

conditions: human gut metagenome, 24 h, 2 µM; remark: another data set of the same source

| Bacterial Biotransformation | SMILES |
| --- | --- |
| Compound metabolized | CCCC1O[C@@H]2C[C@H]3[C@@H]4CCC5=CC(=O)C=C[C@]5(C)[C@H]4[C@@H](O)C[C@]3(C)[C@]2(C(=O)CO)O1 (some centres undefined) [BUDESONIDE] |

assay: as §1, with “on Z-018” for “on Z-029”, “to pig” for “to rat”, “number: ERS12561817” for “number: ERS12561828”; conditions: 2 µM

| Bacterial Biotransformation | SMILES |
| --- | --- |
| Compound metabolized | CCCC1O[C@@H]2C[C@H]3[C@@H]4CCC5=CC(=O)C=C[C@]5(C)[C@H]4[C@@H](O)C[C@]3(C)[C@]2(C(=O)CO)O1 (some centres undefined) [BUDESONIDE] |
| Compound NOT metabolized | CCCCCCOC(=O)/N=C(/N)c1ccc(NCc2nc3cc(C(=O)N(CCC(=O)OCC)c4ccccn4)ccc3n2C)cc1.CS(=O)(=O)O [DABIGATRAN ETEXILATE MESYLATE] |

conditions: human gut metagenome, 24 h, 2 µM; remark: another data set of the same source

| Bacterial Biotransformation | SMILES |
| --- | --- |
| Compound metabolized | CCCC1O[C@@H]2C[C@H]3[C@@H]4CCC5=CC(=O)C=C[C@]5(C)[C@H]4[C@@H](O)C[C@]3(C)[C@]2(C(=O)CO)O1 (some centres undefined) [BUDESONIDE] |

conditions: human gut metagenome, 24 h, 2 µM; remark: another data set of the same source

| Bacterial Biotransformation | SMILES |
| --- | --- |
| Compound metabolized | CCCC1O[C@@H]2C[C@H]3[C@@H]4CCC5=CC(=O)C=C[C@]5(C)[C@H]4[C@@H](O)C[C@]3(C)[C@]2(C(=O)CO)O1 (some centres undefined) [BUDESONIDE] |

conditions: human gut metagenome, 24 h, 2 µM; remark: another data set of the same source

| Bacterial Biotransformation | SMILES |
| --- | --- |
| Compound metabolized | CCCC1O[C@@H]2C[C@H]3[C@@H]4CCC5=CC(=O)C=C[C@]5(C)[C@H]4[C@@H](O)C[C@]3(C)[C@]2(C(=O)CO)O1 (some centres undefined) [BUDESONIDE] |
| Compound NOT metabolized | CCCCCCOC(=O)/N=C(/N)c1ccc(NCc2nc3cc(C(=O)N(CCC(=O)OCC)c4ccccn4)ccc3n2C)cc1.CS(=O)(=O)O [DABIGATRAN ETEXILATE MESYLATE] |

conditions: human gut metagenome, 24 h, 2 µM; remark: another data set of the same source

| Bacterial Biotransformation | SMILES |
| --- | --- |
| Compound metabolized | CCCC1O[C@@H]2C[C@H]3[C@@H]4CCC5=CC(=O)C=C[C@]5(C)[C@H]4[C@@H](O)C[C@]3(C)[C@]2(C(=O)CO)O1 (some centres undefined) [BUDESONIDE] |
| Compound NOT metabolized | CCCCCCOC(=O)/N=C(/N)c1ccc(NCc2nc3cc(C(=O)N(CCC(=O)OCC)c4ccccn4)ccc3n2C)cc1.CS(=O)(=O)O [DABIGATRAN ETEXILATE MESYLATE] |
